# Assay results reported in ChEMBL document CHEMBL5303711, “ECBD screening data for assay EOS300108” (2023).
# Where a name gives a salt, the structure may show the parent alone. Active and inactive are the calls of the source. The rule behind the calls is not given here.
# Tested on: HepG2
# Test: (§1) Cytotoxicity activity against human HepG2 cells assessed by CellTiter-Glo luminescent cell viability assay.
# Assay type: toxicity, cell-based
# Design: assay stage confirmatory assay, source tissue liver
# Conditions: hepg2, read-out: IC50 relative
row,Structure (SMILES),CC50
1,"O=C1C(=O)c2ccccc2-c2ccccc21 [9,10-PHENANTHRENEQUINONE]",1.2 µM (active)
2,COc1cc(/C=C/C(=O)CC(=O)/C=C/c2ccc(O)c(OC)c2)ccc1O [CURCUMIN],7.1 µM (active)
3,Cc1ccc(-n2sc3ccccc3c2=O)cc1,9.1 µM (active)
4,O=c1c2ccccc2sn1-c1ccccc1,13 µM (inactive)
5,CN1CCN(c2ccc3nc(-c4c(N)c5c(F)cccc5[nH]c4=O)[nH]c3c2)CC1 [DOVITINIB],4.4 µM (active)
6,O=C1C(Cl)=C(NCCN2CCOCC2)C(=O)c2ncccc21,4 µM (active)

# Tested on: not listed separately
# Test: as §1
# Assay type: toxicity, cell-based
# Design: assay stage confirmatory assay, source tissue liver
# Conditions: HepG2 cells, read-out: IC50 relative
row,Structure (SMILES),CC50
1,"O=C1C(=O)c2ccccc2-c2ccccc21 [9,10-PHENANTHRENEQUINONE]",1.1 µM (active)
2,COc1cc(/C=C/C(=O)CC(=O)/C=C/c2ccc(O)c(OC)c2)ccc1O [CURCUMIN],5.3 µM (active)
3,Cc1ccc(-n2sc3ccccc3c2=O)cc1,8.7 µM (active)
4,O=c1c2ccccc2sn1-c1ccccc1,10.5 µM (active)
5,CN1CCN(c2ccc3nc(-c4c(N)c5c(F)cccc5[nH]c4=O)[nH]c3c2)CC1 [DOVITINIB],2.7 µM (active)
6,O=C1C(Cl)=C(NCCN2CCOCC2)C(=O)c2ncccc21,4.5 µM (active)
7,Cc1csc(CCNc2cc(N3CCC[C@@H]3CO)ncn2)n1,2.4 µM (active)
8,Nc1nc(NC[C@H]2CC[C@H](CNS(=O)(=O)c3cccc4ccccc34)CC2)nc2ccccc12,2 µM (active)
9,COc1cc(CNc2cc(C)nc(N)n2)ccc1C,6.7 µM (active)
10,Cc1ccc(NC(=O)Cc2ccc(-n3cccc3)cc2)nc1,1.6 µM (active)
11,Cc1ccccc1OCC(=O)Nc1ccc(OC2CCN(C)CC2)cc1,13.6 µM (inactive)
12,O=C(NCCN1CCC(n2c(=O)[nH]c3ccccc32)CC1)c1cc2cc(F)ccc2[nH]1,6.4 µM (active)
13,COc1ccc2cc1Oc1ccc(cc1)C[C@H]1c3cc(c(OC)cc3CCN1C)Oc1c(OC)c(OC)cc3c1[C@H](C2)N(C)CC3 [FANCHININ],1.4 µM (active)
14,CCOc1ccc(C(=O)N2CCN(Cc3noc(-c4ccc(F)cc4)n3)CC2)cc1,4.8 µM (active)
15,C[C@@H](Oc1ccc2[nH]nc(/C=C/c3cnn(CCO)c3)c2c1)c1c(Cl)cncc1Cl [LY-2874455],0.7 µM (active)
16,Cn1c(=O)c2ccc(C(=O)Nc3nc(-c4ccco4)cs3)nc2n(C)c1=O,10.5 µM (inactive)
17,CN(C)c1ccc2nc3ccc(=[N+](C)C)cc-3sc2c1 [METHYLENE BLUE ANHYDROUS],3 µM (active)
18,Cc1ccc(NC(=O)c2ccc(CN3CCN(C)CC3)cc2)cc1Nc1nc(-c2cccnc2)cs1 [MASITINIB],3.5 µM (active)
19,CC(C)c1cc2c(N3CCN(C4=NCC(C)(C)S4)CC3)ncnc2s1,10 µM (active)
20,CC[N+](CC)=c1ccc2nc3c(cc(N)c4ccccc43)oc-2c1 [NILE BLUE HYDROCHLORIDE],2 µM (active)
21,Cc1nonc1Cn1nc(Cl)c(Cl)cc1=O,21.6 µM (inactive)
22,CCS(=O)(=O)c1ncc(Br)c(C(=O)Nc2ccc(C)cc2)n1,3.1 µM (active)
23,CCN(Cc1ccc(OC)cc1)Cc1nc2c(F)cccc2[nH]1,10.2 µM (active)
24,Oc1ccc2c(c1)CC[C@H](c1ccccc1)[C@@H]2c1ccc(OCCN2CCCC2)cc1,2.9 µM (active)
25,C=CC(=O)Nc1cc2c(Nc3ccc(F)c(Cl)c3)ncnc2cc1OCCCN1CCOCC1 [CANERTINIB],50 µM (inactive)

row,Structure (SMILES),CC50
1,CCN(c1ccccc1C)S(=O)(=O)c1cn(C)nn1,19.9 µM (inactive)
2,Cc1ccn(-c2cc(N3CCN(C(=O)Nc4ccc5c(c4)OCO5)CC3)ncn2)n1,15.7 µM (inactive)
3,O=C(Nc1nc2ccc(NC(=O)C34CC5CC(CC(C5)C3)C4)cc2s1)c1ccccc1,15 µM (inactive)
4,Cc1cccc(-c2noc(-c3ccc(N4CCN(C)CC4)nc3)n2)c1,5 µM (active)
5,C[C@@H]1CNCCN1S(=O)(=O)c1cccc(Br)c1,50 µM (inactive)
6,CCN(CC)C(=O)N1CC(Oc2ccc(-c3noc(C4CCOCC4)n3)cc2)C1,2.3 µM (active)
7,FC(F)(F)c1ccc(/C=C/c2nc(COc3ccc(CCCCn4ccnn4)cc3)co2)cc1 [MUBRITINIB],0.3 µM (active)
8,COc1ccc(-n2ccc(C(=O)Nc3cnccc3C(N)=O)n2)cc1,5.4 µM (active)
9,CC1(C)CC=C(c2nc(C3CC(C)(C)OC(C)(C)C3)ccc2NC(=O)c2nc(C#N)c[nH]2)CC1 [EDICOTINIB],2.8 µM (active)
10,Cc1nc2n(c(=O)c1C)CN(CCCO)CN2c1ccc(Cl)cc1Cl,50 µM (inactive)
11,CC(C)CCOc1ccc(CN(CC(C)(C)N(C)C)S(C)(=O)=O)cc1,12.2 µM (active)
12,CCN(CC)Cc1ccccc1CNC(=O)N(CC)C[C@H]1COc2ccccc2O1,10.8 µM (active)
13,Cc1ccc(CN2CCN(C3CCNC3)CC2)c(Cl)c1Cl (stereo unspecified),7.7 µM (active)
14,Cn1ncc2cc(-c3cnc(N)c(Cl)c3N3CCC4(CCNC4=O)CC3)ccc21,5.7 µM (active)
15,CCn1c(NC(=O)c2ccc(=O)n(CCOc3ccccc3)n2)nc2ccccc21,4.6 µM (active)
16,CCS(=O)(=O)c1ccc(CC(=O)Nc2cc(Cl)c(-c3ccccc3OC(F)(F)F)c(Cl)c2)cc1,12.7 µM (inactive)
17,CCN(CC)CCCNC(=O)C1CCN(c2nn3cc(-c4ccc(OC)cc4)nc3s2)CC1,3 µM (active)
18,CO[C@H]1/C=C\C=C(\C)C(=O)NC2=CC(=O)C(NCCN(C)C)=C(C[C@@H](C)C[C@H](OC)[C@H](O)[C@@H](C)/C=C(/C)[C@@H]1OC(N)=O)C2=O,< 0.1 µM (active)
19,CC(C)CNC(=O)COc1ccc(-c2nc(C(C)C)no2)cc1,8.1 µM (active)
20,COc1ccc(-c2nc(NCCN3CCN(C)CC3)c3ccccc3n2)cc1,7.9 µM (active)
21,CN(C(=O)Cn1c(S(C)(=O)=O)nc2ccccc21)c1ccccc1,5.1 µM (inactive)
22,Cn1c(=O)oc2cc(S(=O)(=O)Nc3cccc4cccnc34)ccc21,16.7 µM (active)
23,Cc1nc(Nc2cnn(C3CCNCC3)c2)nc2c1N(C)C(=O)c1cc3ccccc3cc1N2C,4.5 µM (active)
24,CCNC(=O)C[C@@H]1N=C(c2ccc(Cl)cc2)c2cc(OC)ccc2-n2c(C)nnc21 [MOLIBRESIB],2.6 µM (active)
25,COc1ccccc1C(=O)Nc1ccccn1,8.4 µM (inactive)
